One experiment deals with sebum production. The note with it: background statement; cited from earlier work.
The next experiment deals with sebaceous glands. As to the kind of experiment: Sebum production and maturation of sebaceous glands in newborn BalbC mice topically treated with visfatin antagonist siRNAs (Oil Red O, H&E, gland counts). In kind it is in vivo, Mus musculus. The note with it: siRNA free second control solution (PBS, 0.1% DMSO, 1 μg/ml MPDY), day 5 after birth. The procedure:
Hematoxylin & Eosin Staining: Paraffin embedded skin biopsy section slides were incubated at 60° C. for 60 minutes and deparaffinized by washing the slides twice with toluene (100%) for 10 minutes and rehydrating the skin biopsy section slides in decreasing concentration of ethanol (100-50%) for 5 minutes each. The slides then were stained with a ready to use solution of hematoxylin for 5 minutes, rinsed with water, stained with eosin (0.5% in double distilled water) for 1.5 minutes and washed twice by rapid immersion in 70% ethanol. Thereafter, the slides were dehydrated by washing once with 95% ethanol for 5 minutes, twice with 100% ethanol for 5 minutes and twice with xylene (100%) for 10 minutes. This was followed by the application of ENTELLAN™ (Merck KGaA, Darmstadt, Germany) and the mounting of coverslips.
Oil Red O Staining: Frozen skin biopsy section slides were fixed in 1% neutral-buffered formalin for 5 minutes, washed in deionized water, and incubated in 60% isopropanol for 5 minutes. Skin biopsy section slides were stained with a fresh, filtered Oil Red O working solution which had been prepared immediately beforehand by making a 2:3 mixture of stock (0.5% Oil Red O in 99% isopropanol) and deionized water. […]

Ends that are not written are not given here. * marks the point of attachment. Myristoyl = CCCCCCCCCCCCCC(=O)*

For `CC1=C(/C=C/C(C)=C/C=C/C(C)=C\C(=O)O)C(C)(C)CCC1` [Isotretinoin], the “decrease of sebum production” value with sebum production is on record as “up to 90%”.
As for “MPDY: cationic, lipophilic, N-myristoylated peptide having the amino acid sequence FARKGALRQ (SEQ ID NO: 27) (Myristoyl-FARKGALRQ)”, the “effect of peptide alone on sebum production and skin” value in the experiment with sebaceous glands is given as “did not inhibit sebum production or otherwise discernibly alter the skin”.
